According to US20110124888A1, “STYRYLBENZOFURAN DERIVATIVES AS INHIBITORS FOR BETA-AMYLOID FIBRIL FORMATION AND PREPARATION METHOD THEREOF” (Korea Institute of Science and Technology, priority 2008, published 2011):

What was measured:
beta-amyloid 42 (Aβ42) = molecular target: T1, beta-amyloid 42 (Aβ42) (Homo sapiens, UniProt P05067); assay: Inhibitory effect on the formation of beta-amyloid fibrils in vitro (ThT fluorescence assay); type: biochemical; settings: for IC50: In vitro ThT analysis (Aβ42: 25 μM), experiment of Table 1; for % inhibition against the beta-amyloid 42 formation compared with curcumin: Tables 1 to 6, relative to curcumin
T1 construct: Beta-amyloid 42 (Aβ42) was dissolved in dimethylsulfoxide (DMSO)
Procedure: In order to investigate the inhibitory effect on the formation of beta-amyloid fibrils, the inventive compounds were examined as follows:
Beta-amyloid 42 (Aβ42) was dissolved in dimethylsulfoxide (DMSO) to form a […] Aβ42 stock solution. In addition, ThT (thioflavin T) was dissolved in distilled water to a concentration of 1 mM and subsequently diluted with 50 mM glycin buffer (pH 8.5) to yield a 5 μM ThT stock solution.
45 μL of PBS (phosphate buffer saline, pH 7.4) was added to each of a 96 well fluorescence microplate (white, F-bottom). 5 μL of the 250 μM Aβ42 stock solution was added to each well. The final concentration of each compound obtained in Examples was in a range of 10 to 0.001 μM by adding 2 μL of a solution, which is prepared by dissolving the subject compounds obtained in Examples in DMSO, to each well. At this time, the final concentration of Aβ42 in each well was 25 μM. The plate was then incubated at room temperature for 1 hr, and 150 μL of the 5 μM ThT stock solution was added to each well.
The fluorescence intensity of each well was determined with the multi label fluorescence counter (LS-55 Luminescence spectrometer, Perkin Elmer) at an excitation wavelength of 450 nm (excitation slit width: 10 nm) and an emission wavelength of 482 nm (emission slit width: 10 nm), while adjusting counting time to 1 second. The control group was prepared by adding PBS solution, Aβ42 and DMSO, without adding the inventive compound. % Inhibition on the formation of beta-amyloid fibrils was calculated in accordance with the following equation and IC5O was calculated by using GraphPad Prism version 4.03 Program.
% Inhibition=[1−(C−D)/(A−B)]×100 Equation 1%
A (control group): fluorescence intensity in a group treated with PBS solution, Aβ42, and DMSO
B (blank): fluorescence intensity in a group treated with PBS solution and DMSO
C (experimental group): fluorescence intensity in a group treated with PBS solution, Aβ42, DMSO, and the inventive compound
D (compensation value to the experimental group): fluorescence intensity in a group treated with PBS solution, DMSO, and the inventive compound

[1] = system: transgenic double tg mice (APPswe, PSEN1 dE9); assay: In vivo fear conditioning test in transgenic mice; settings: 5 to 12 months of age, based on the freezing (%) of Tg vehicle group
Procedure: The tails of 3-week old mice born from Male B6C3-Tg (APPswe, PSEN1 dE9, Jackson Laboratory Co., Maine, A) and female B6C3F1 (central Lab. Animal Inc., Korea) were cut in lengths of about 0.5 cm (tail biopsy). The genomic DNAs were extracted from the tail samples and subjected to a genotype analysis to screen transgenic double tg mice.
From 5 months to 12 months after the birth, the mice were administered orally with the compound of Example 9, in an amount of 30 mg/kg or 100 mg/kg every day. As a comparative compound, tramiprosate (Aisen, P. S. et. al., Curr. Alzheimer Res. 2007, 4, 473) was used, which binds to beta-amyloid protein to inhibit the deposition and cytotoxicity to the protein. The compounds were administrated.
3) Fear Conditioning Test
At the First day of training, the mice were placed in a conditioning box and adjusted for 2 min. The fear conditioning was performed with a conditional stimulus (CS) of 75 dB for 20 sec, together with an electrical stimulus (unconditional stimulus (US)) of 0.5 mA for final 2 sec in the conditional stimulus period. After 1 min, the animals were transferred to a cage. After 24 hrs, the retention test was performed. The animals were placed in the same conditioning box as used above and observed for 5 min. The freezing response was measured without CS and US. The freezing response is defined in the state of the animals keeping still except for breathing.

beta-amyloid 42 = beta-amyloid 42 (Homo sapiens, UniProt P05067); assay: Biochemical test: content of beta-amyloid 42 in hippocampus tissue of transgenic mice; type: in vivo; settings: hippocampus tissue, based on the content of beta amyloid 42 in the Tg group
[2] = system: congo red-positive beta-amyloid plagues; assay: Immunohistochemistry: congo red-positive beta-amyloid plaque count in hippocampus and cortex of transgenic mice; type: in vivo; settings: vs Tg group
Procedure: The transgenic mice were screened and drug was administered thereto as described in 1) and 2) of Experimental Example 4. The brain was separated from the transgenic mouse and fixed in 10% neutral formalin solution. A region of the brain including the hippocampus and the cortex were subjected to removal, washing, dehydration and paraffin infiltration to obtain paraffin block including the brain tissue. The paraffin block was subjected to thin section in thickness of 8 μm to obtain the sections of all regions of hippocampus. Among them, 10 sections were elected at regular intervals. They were deparaffinized, hydrated, immersed in Mayer's hematoxylin for 1 min and rinsed with tap water. The rinsed tissue was reacted in an alkaline sodium chloride solution for 20 min, after then was reacted in an alkaline congo red solution for 20 min. The resulting tissue was washed with 100% ethyl alcohol, cleared with xylene and mounted using a synthetic mounting medium. In the hippocampus and cortex regions of the tissue preparations strained with congo red, congo red-positive beta-amyloid plagues were counted.

T1 sequence (P05067 672-713 limits assumed): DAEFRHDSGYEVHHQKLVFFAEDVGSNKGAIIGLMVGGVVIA
beta-amyloid 42, sequence (P05067 672-713 limits assumed): as above

Row | Structure (SMILES) | IC50 (beta-amyloid 42 (Aβ42)) | % inhibition against the beta-amyloid 42 formation compared with curcumin (beta-amyloid 42 (Aβ42)) | melting point | Increase rate (fold) of freezing ([1]; 30 mg/kg orally every day) | Increase rate (fold) of freezing ([1]; 100 mg/kg orally every day) | Reduction rate (%) of beta amyloid 42 content (beta-amyloid 42; 30 mg/kg) | Reduction rate (%) of beta amyloid 42 content (beta-amyloid 42; 100 mg/kg) | Reduction rate (%) of beta-amyloid plaques, cortex ([2]; 30 mg/kg) | Reduction rate (%) of beta-amyloid plaques, hippocampus ([2]; 30 mg/kg) | Total reduction rate (%) of beta-amyloid plaques ([2]; 30 mg/kg) | Reduction rate (%) of beta-amyloid plaques, cortex ([2]; 100 mg/kg) | Reduction rate (%) of beta-amyloid plaques, hippocampus ([2]; 100 mg/kg) | Total reduction rate (%) of beta-amyloid plaques ([2]; 100 mg/kg)
1 | COc1ccc2oc(C=Cc3ccc(N(C)C)c(OC)c3)cc2c1 [Compound 22, 5-methoxy-2-(3-methoxy-4-dimethylaminostyryl)benzofuran] | 0.156 µM | superior % inhibition | 226.5 to 227.5 °C | – | – | – | – | – | – | – | – | – | –
2 | CN(C)c1ccc(C=Cc2cc3cc(O)ccc3o2)cc1 [Compound 3, 5-Hydroxy-2-(4-dimethylaminostyryl)benzofuran] | 0.163 µM | superior % inhibition | 177 to 178 °C | – | – | – | – | – | – | – | – | – | –
3 | Cc1ccc2oc(C=Cc3ccc(N(C)C)cc3)cc2c1 [Compound 4, 5-methyl-2-(4-dimethylaminostyryl)benzofuran] | 0.128 µM | superior % inhibition | 188 to 189 °C | – | – | – | – | – | – | – | – | – | –
4 | NCCCS(=O)(=O)O [Tramiprosate, tramiprosate, reference compound] | – | – | – | 2.3 fold | 1.8 fold | 8% | 16% | 32% | 7% | 29% | 12% | 7% | 11%
